{"source": "ChEMBL document CHEMBL2034954", "about": "“Synthesis and antimycobacterial activity of novel 1,3-dimethylisocyanurate derivatives” (Eur J Med Chem, 2012)", "key": {"[1]": {"test_system": "Mycobacterium tuberculosis", "experiment": "Antitubercular activity against Mycobacterium tuberculosis H37Rv at 10 ug/mL by radiometric growth assay", "format": "functional, organism-based"}, "Rattus norvegicus": {"test_system": "Rattus norvegicus", "experiment": "Acute toxicity in rat assessed as mortality at 3000 mg/kg, po after 14 days", "format": "organism-based", "set-up": "dose 3000 mg/kg, route oral", "conditions": "in vivo, 336 h"}, "[2]": {"test_system": "Mycobacterium tuberculosis", "experiment": "Bacteriostatic activity against Mycobacterium tuberculosis H37Rv at 0.1 ug/mL assessed as growth index after 5 days by radiometric growth assay (reference value: 210 growth index)", "format": "functional"}, "[3]": {"test_system": "Mycobacterium tuberculosis", "experiment": "Antitubercular activity against Mycobacterium tuberculosis H37Rv at 1 ug/mL by radiometric growth assay", "format": "functional, organism-based"}, "Aspergillus niger": {"test_system": "Aspergillus niger", "experiment": "Antifungal activity against Aspergillus niger BKMF-1119 up to 1 ug/mL after 14 days by broth dilution method", "format": "functional, organism-based"}, "Bacillus cereus": {"test_system": "Bacillus cereus", "experiment": "Antibacterial activity against Bacillus cereus 8035 up to 1 ug/mL after 5 days by broth dilution method", "format": "functional, organism-based"}, "Escherichia coli": {"test_system": "Escherichia coli", "experiment": "Antibacterial activity against Escherichia coli F-50 up to 1 ug/mL after 5 days by broth dilution method", "format": "functional, organism-based"}, "[4]": {"test_system": "Mycobacterium tuberculosis", "experiment": "Bacteriostatic activity against Mycobacterium tuberculosis H37Rv at 0.05 ug/mL assessed as growth index after 3 days by radiometric growth assay (reference value: 210 growth index)", "format": "functional"}, "[5]": {"test_system": "Mycobacterium tuberculosis", "experiment": "Antitubercular activity against Mycobacterium tuberculosis H37Rv after […] by radiometric growth assay", "format": "functional"}, "[6]": {"test_system": "Mycobacterium tuberculosis", "experiment": "Bacteriostatic activity against Mycobacterium tuberculosis H37Rv at 0.1 ug/mL assessed as growth index after 4 days by radiometric growth assay (reference value: 210 growth index)", "format": "functional"}, "Staphylococcus aureus": {"test_system": "Staphylococcus aureus", "experiment": "Antibacterial activity against Staphylococcus aureus 209p up to 1 ug/mL after 5 days by broth dilution method", "format": "functional, organism-based"}, "Candida albicans": {"test_system": "Candida albicans", "experiment": "Antifungal activity against Candida albicans 855-653 up to 1 ug/mL after 14 days by broth dilution method", "format": "functional, organism-based"}, "Mus musculus": {"test_system": "Mus musculus", "experiment": "Acute toxicity in white outbred mouse assessed as mortality at 3000 mg/kg, po after 14 days", "format": "organism-based", "set-up": "dose 3000 mg/kg, route oral", "conditions": "in vivo, 336 h"}, "[7]": {"test_system": "Trichophyton mentagrophytes", "experiment": "Antifungal activity against Trichophyton mentagrophytes 1773 up to 1 ug/mL after 14 days by broth dilution method", "format": "functional, organism-based"}, "[8]": {"test_system": "Mycobacterium tuberculosis", "experiment": "Bacteriostatic activity against Mycobacterium tuberculosis H37Rv at 0.1 ug/mL assessed as growth index after 3 days by radiometric growth assay (reference value: 210 growth index)", "format": "functional"}, "[9]": {"test_system": "Mycobacterium tuberculosis", "experiment": "Bacteriostatic activity against Mycobacterium tuberculosis H37Rv at 0.1 ug/mL assessed as growth index after 7 days by radiometric growth assay (reference value: 210 growth index)", "format": "functional"}, "[10]": {"test_system": "Mycobacterium tuberculosis", "experiment": "Bacteriostatic activity against Mycobacterium tuberculosis H37Rv at 0.05 ug/mL assessed as growth index after 5 days by radiometric growth assay (reference value: 210 growth index)", "format": "functional"}, "[11]": {"test_system": "Mycobacterium tuberculosis", "experiment": "Bacteriostatic activity against Mycobacterium tuberculosis H37Rv at 0.05 ug/mL assessed as growth index after 7 days by radiometric growth assay (reference value: 210 growth index)", "format": "functional"}, "[12]": {"test_system": "Mycobacterium tuberculosis", "experiment": "Bacteriostatic activity against Mycobacterium tuberculosis H37Rv at 0.05 ug/mL assessed as growth index after 4 days by radiometric growth assay (reference value: 210 growth index)", "format": "functional"}, "[13]": {"test_system": "Mycobacterium tuberculosis", "experiment": "Bacteriostatic activity against Mycobacterium tuberculosis H37Rv at 0.1 ug/mL assessed as growth index after 10 days by radiometric growth assay (reference value: 210 growth index)", "format": "functional"}}, "note": "Activity calls are given as the source filed them. No cut-off for these calls is given here.", "data": [{"smiles": "Cn1c(=O)n(C)c(=O)n(CCCCC[S+]([O-])CC(=O)NN)c1=O", "note": "(stereo not given)", "values": [{"measurement": "Activity", "setting": "[1]", "value": "Active"}, {"measurement": "Activity", "setting": "Rattus norvegicus", "value": "Non-toxic"}, {"measurement": "Growth_index", "setting": "[2]", "value": 1}, {"measurement": "Activity", "setting": "[3]", "value": "Active"}, {"measurement": "Activity", "setting": "Aspergillus niger", "value": "inactive"}, {"measurement": "Activity", "setting": "Bacillus cereus", "value": "inactive"}, {"measurement": "Activity", "setting": "Escherichia coli", "value": "inactive"}, {"measurement": "Growth_index", "setting": "[4]", "value": 15}, {"measurement": "MIC", "setting": "[5]", "value": 0.05, "unit": "mg/L"}, {"measurement": "Growth_index", "setting": "[6]", "value": 0}, {"measurement": "Activity", "setting": "Staphylococcus aureus", "value": "inactive"}, {"measurement": "Activity", "setting": "Candida albicans", "value": "inactive"}, {"measurement": "Activity", "setting": "Mus musculus", "value": "Non-toxic"}, {"measurement": "Activity", "setting": "[7]", "value": "inactive"}, {"measurement": "Growth_index", "setting": "[8]", "value": 0}, {"measurement": "Growth_index", "setting": "[9]", "value": 2}, {"measurement": "Growth_index", "setting": "[10]", "value": 32}, {"measurement": "Growth_index", "setting": "[11]", "value": ">90"}, {"measurement": "Growth_index", "setting": "[12]", "value": 27}, {"measurement": "Growth_index", "setting": "[13]", "value": 2}]}]}
